Legend:
[1] = cited from earlier work
[2] = Evaluating film-forming property (cracks in cast coating film); format: physicochemical
Protocol: After drying for 24 hours, the film-forming property was evaluated by visual observation based on criteria below. When no crack occurred, the film-forming property was evaluated as “A”, when fine cracks slightly occurred, the film-forming property was evaluated as “B”, and when clear cracks occurred over the entire surface of the coating film, the film-forming property was evaluated as “C”.

[3] = Evaluating alkali resistance of coating film on galvanized steel sheet; format: physicochemical
Protocol: Each of the aqueous resin compositions immediately after preparation was applied on a galvanized steel sheet by using a film applicator so that an amount of application was 0.1 g/100 cm^2 and then dried at 80° C. for 30 seconds to form a test piece. Next, 0.5 mL of a 5% aqueous sodium hydroxyl solution was dropped on the test piece which was then allowed to stand for 30 minutes. After being allowed to stand, the appearance of a coating film in a portion where the liquid adhered was evaluated based on criteria below. When no change occurred in the appearance, alkali resistance was evaluated as “A”; when the coating film was discolored black or dissolved in an area of less than 10%, alkali resistance was evaluated as “B”; when the coating film was discolored black or dissolved in an area of 10% or more and less than 30%, alkali resistance was evaluated as “C”; and when the coating film was discolored black or dissolved in an area of 30% or more, alkali resistance was evaluated as “D”.

[4] = Corrosion resistance, salt spray test JIS Z2371; format: physicochemical
Protocol: Each of the aqueous resin compositions immediately after preparation was applied on a galvanized steel sheet by using a film applicator so that an amount of application was 0.1 g/100 cm^2 and then dried at 80° C. for 30 seconds to form a test piece. According to a salt spray test method described in JIS Z2371, a 5 mass % aqueous sodium chloride solution was sprayed on the test piece at an ambient temperature of 35° C., and a rate of occurrence of white rust after 240 hours was measured and evaluated based on criteria below. In addition, a tape seal was attached to a portion where the aqueous resin composition was not applied (the end surfaces and back surface). When no white rust occurred, corrosion resistance was evaluated as “A”; when white rust occurred in an area of less than 5% of the whole coating area, corrosion resistance was evaluated as “B”; when white rust occurred in an area of 5% or more and less than 20% of the whole coating area, corrosion resistance was evaluated as “C”; and when white rust occurred in an area of 20% or more of the whole coating area, corrosion resistance was evaluated as “D”.

For CN1CCCC1=O [N-methyl-2-pyrrolidone], the “toxicity (in words)” value [1] is listed as “problem of toxicity”, the “film-forming property (in words)” value [2] is listed as “excellent” and the “alkali resistance of coating film (in words)” value [3] is listed as “excellent”. The “corrosion resistance of coating film (in words)” value [4] was “excellent”.

Source: patent US20140364552A1, “AQUEOUS RESIN COMPOSITION COMPRISING FILM-FORMING AID, AND STEEL SHEET SURFACE TREATMENT AGENT CONTAINING THE SAME” (DIC Corporation, priority 2011, published 2014)
